Measurements published in US8715529B1, “Synthesis and applications of triazaborolopyridinium compounds and substituted triazaborolopyridinium compounds and methods of use” (Arrowhead Center, Inc., priority 2012, dated 2014).

What was measured:
[1] = system: HeLa cells; experiment: Live imaging of HeLa cells treated with MSTLC probes; assay type: cell-based; details: mitotic HeLa cells
[2] = target: T1, human kinesin Eg5 motor protein (Homo sapiens, UniProt P52732); experiment: Monopolar spindle formation in HeLa cells treated with MSTLC probes (fixed, tubulin/DNA staining); assay type: cell-based; details: read-out: EC50, monopolar spindles / block of bipolar spindle
T1 construct: endogenous in cells; host or cells: HeLa cells
T1 sequence (P52732 1-1056): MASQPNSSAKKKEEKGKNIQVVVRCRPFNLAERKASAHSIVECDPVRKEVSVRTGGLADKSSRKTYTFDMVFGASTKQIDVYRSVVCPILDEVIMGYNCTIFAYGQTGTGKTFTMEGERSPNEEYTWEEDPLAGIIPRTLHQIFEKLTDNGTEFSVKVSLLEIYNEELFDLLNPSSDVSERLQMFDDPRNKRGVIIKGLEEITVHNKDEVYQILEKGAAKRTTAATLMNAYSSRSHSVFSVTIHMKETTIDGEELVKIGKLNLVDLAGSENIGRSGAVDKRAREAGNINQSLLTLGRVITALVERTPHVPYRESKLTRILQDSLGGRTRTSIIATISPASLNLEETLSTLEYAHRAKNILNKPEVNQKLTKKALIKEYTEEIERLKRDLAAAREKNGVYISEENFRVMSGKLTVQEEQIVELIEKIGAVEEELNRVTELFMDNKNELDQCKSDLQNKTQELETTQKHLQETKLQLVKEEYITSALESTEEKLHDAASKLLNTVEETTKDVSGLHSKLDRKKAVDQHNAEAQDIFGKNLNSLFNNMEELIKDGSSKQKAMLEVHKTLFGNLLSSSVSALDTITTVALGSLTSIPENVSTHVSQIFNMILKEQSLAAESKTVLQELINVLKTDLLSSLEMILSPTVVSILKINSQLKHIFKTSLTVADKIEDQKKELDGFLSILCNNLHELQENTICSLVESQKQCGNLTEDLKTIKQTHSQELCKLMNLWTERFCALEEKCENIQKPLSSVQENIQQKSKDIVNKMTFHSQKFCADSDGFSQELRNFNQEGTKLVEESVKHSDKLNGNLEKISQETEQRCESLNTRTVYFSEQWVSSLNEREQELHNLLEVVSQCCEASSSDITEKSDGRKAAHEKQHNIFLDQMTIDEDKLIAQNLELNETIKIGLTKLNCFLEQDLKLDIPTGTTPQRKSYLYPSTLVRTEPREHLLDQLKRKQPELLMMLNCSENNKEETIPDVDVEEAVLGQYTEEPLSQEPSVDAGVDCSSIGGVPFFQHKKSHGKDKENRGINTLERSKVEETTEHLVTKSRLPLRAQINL
Procedure: The inhibitory activity of human kinesin Eg5 motor protein was tested using probes 3.3, 3.5 and 413. HeLa cells were treated with 10 μM of each probe, as well as the unconjugated inhibitor Methoxy-S-Trityl-L-cysteine. Then cells were incubated with anti-α tubulin 1:1000 primary antibody, AlexaFluor-546 conjugated rabbit anti-mouse secondary antibody and Hoechst 33342 for staining microtubules and DNA respectively. Cells were subsequently washed and mounted onto glass sides with 90% glycerol and imaged using a Zeiss Axiovert 200M inverted microscope outfitted with epifluorescence optics, and a Zeiss Apotome structured illumination module.

[3] = system: phospho-ERK; experiment: Immunoblot of phospho-ERK accumulation in MCF7 cells; assay type: cell-based; details: 10 nM, about 15 minutes
Procedure: FIG. 9 illustrates that E2-HPY(530) treatment leads to the accumulation of phospho-ERK in MCF7 breast cancer cells. […] After about a 15 minute treatment, protein lysates were isolated for immunoblot analysis. The upper panel of […] was probed with pERK1/2 mAb (1:600, Santa Cruz Biotechnology) overnight at about 4° C. Lower panel was obtained after stripping the membrane and probing (1:3000) with Actin mAb overnight at about 4° C. Primary antibodies were visualized with horseradish peroxidase conjugated secondary antibodies.
FIG. 9 illustrates that E2-HPY(530) treatment leads to the accumulation of phospho-ERK in MCF7 breast cancer cells. […] Primary antibody raised against P-ERK was used to visualize p-ERK levels. Actin expression determined by Actin specific mAb was used as a loading control.

[4] = system: estrogen receptor (ER)-dependent promoter; experiment: Invitrogen SelectScreen Profiling Service, ER-mediated transcription; assay type: cell-based; details: read-out: ED50, ER-mediated transcription
[5] = Octanol/water partition coefficient (Log Po/w); assay type: physicochemical

EC50 [2] | EC50 [4] | logP [5] | Structure (SMILES) | spindle phenotype [1] | accumulation of phospho-ERK [3]
~1030 nM |  |  | COc1ccc(C(SC[C@H](N)C(=O)NCCC#CC2=CN3C(=N[N+](=C(C)C)[B-]3(OC)OC)C=C2)(c2ccccc2)c2ccccc2)cc1 [3.5] | formed monopolar spindles | 
~1130 nM |  |  | COc1ccc(C(SC[C@H](N)C(=O)NCCC#CC2=CN3C(=N[N+](=C(C)C)[B-]3(F)F)C=C2)(c2ccccc2)c2ccccc2)cc1 [3.3] | formed monopolar spindles | 
 | 0.11 nM |  | C[C@]12CC[C@@H]3c4ccc(O)cc4CC[C@H]3[C@@H]1CC[C@@H]2O [E2, 17-β-estradiol] |  | resulted in the accumulation of phospho-ERK
 |  | 0.79 | F[B-]1(F)N2C=C(I)C=CC2=N[N+]1=C1c2ccccc2-c2ccccc21 [HPY(530)-Iodide, 2-(9H-fluoren-9-ylidene)-3,3-difluoro-6-iodo-2,3-dihydro-[1,2,4,3]triazaborolo[4,5-a]pyridin-2-ium-3-uide] |  | 
